Active and inactive are the calls of the source.
Assays:
Estrogen receptor = biological target: T1, Estrogen receptor (Homo sapiens, UniProt P03372);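 further: potency for inhibiting coactivator peptide recruitment to the receptor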
T1 sequence (P03372 whole entry): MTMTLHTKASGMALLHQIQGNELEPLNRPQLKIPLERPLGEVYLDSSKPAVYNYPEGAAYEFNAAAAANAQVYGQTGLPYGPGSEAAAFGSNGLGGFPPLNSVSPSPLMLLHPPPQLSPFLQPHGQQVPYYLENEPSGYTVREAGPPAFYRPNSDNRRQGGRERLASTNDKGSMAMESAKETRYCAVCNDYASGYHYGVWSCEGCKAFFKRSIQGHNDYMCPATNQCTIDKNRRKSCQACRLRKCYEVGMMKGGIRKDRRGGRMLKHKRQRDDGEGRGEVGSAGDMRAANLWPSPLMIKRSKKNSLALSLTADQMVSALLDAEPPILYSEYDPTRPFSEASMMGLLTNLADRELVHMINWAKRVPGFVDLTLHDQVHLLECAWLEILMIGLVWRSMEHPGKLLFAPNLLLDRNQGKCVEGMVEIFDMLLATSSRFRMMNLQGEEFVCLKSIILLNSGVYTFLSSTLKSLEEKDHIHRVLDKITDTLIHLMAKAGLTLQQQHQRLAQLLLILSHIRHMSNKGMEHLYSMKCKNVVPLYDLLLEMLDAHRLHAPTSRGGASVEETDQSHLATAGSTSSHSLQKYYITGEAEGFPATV

[1] = reduced cellular PGC1a acetyl-lysine signal – cell-based, cherry-picked samples, dose response (AID 720514); type: functional;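 further: potency may reflect raised or lowered acetylation signal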
[2] = biological target: T2, RNA-binding protein pos-1 (Caenorhabditis elegans, UniProt G5EF15); assay: disruptors of C. elegans POS-1 RNA interaction – biochemical, fluorescence polarization, dose response (AID 1964);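 further: purified POS-1 fused to maltose binding protein made in E. coli; potency of compounds blocking POS-1 binding to fluorescent RNA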
T2 sequence (G5EF15 whole entry): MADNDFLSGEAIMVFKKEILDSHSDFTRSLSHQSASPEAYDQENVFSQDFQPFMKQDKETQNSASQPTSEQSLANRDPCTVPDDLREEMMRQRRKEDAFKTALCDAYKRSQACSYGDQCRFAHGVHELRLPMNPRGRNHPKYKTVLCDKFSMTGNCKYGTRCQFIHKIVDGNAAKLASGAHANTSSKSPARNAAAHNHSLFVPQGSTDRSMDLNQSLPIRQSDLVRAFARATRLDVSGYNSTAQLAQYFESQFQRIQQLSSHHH

[3] = biological target: T3, Zinc finger protein mex-5 (Caenorhabditis elegans, UniProt Q9XUB2); assay: potency of MEX-5 RNA-binding blockers – biochemical, C. elegans, fluorescence polarization, dose response (AID 1960)
T3 sequence (Q9XUB2 whole entry): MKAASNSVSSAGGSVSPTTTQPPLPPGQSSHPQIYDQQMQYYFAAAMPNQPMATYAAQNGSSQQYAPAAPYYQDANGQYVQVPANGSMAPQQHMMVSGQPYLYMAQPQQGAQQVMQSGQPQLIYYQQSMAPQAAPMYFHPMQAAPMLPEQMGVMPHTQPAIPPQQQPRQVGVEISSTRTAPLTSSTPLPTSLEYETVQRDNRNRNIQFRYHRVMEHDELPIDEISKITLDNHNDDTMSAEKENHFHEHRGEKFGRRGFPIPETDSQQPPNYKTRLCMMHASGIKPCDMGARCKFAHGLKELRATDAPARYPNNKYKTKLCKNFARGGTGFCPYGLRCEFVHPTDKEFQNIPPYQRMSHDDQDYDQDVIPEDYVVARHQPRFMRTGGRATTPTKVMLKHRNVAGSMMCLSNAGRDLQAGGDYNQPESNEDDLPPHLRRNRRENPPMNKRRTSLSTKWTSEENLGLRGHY

[4] = Trypanosoma cruzi growth suppression in host cells – NIH3T3 host cells, beta-gal luminescence, confirmation (AID 2044); type: functional, cell-based;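 further: intracellular parasites grown in NIH/3T3 mouse fibroblasts as host cells; luminescent beta-galactosidase reporter signal from transgenic T. cruzi replicating inside host cells; inhibitors lower the luminescence signal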
[5] = NIH3T3 cell viability loss – ATP luminescence, mouse fibroblasts, counter-screen, dose response (AID 2010); type: functional, cell-based;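 further: cells exposed to compound for about 90 hours before reading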
[6] = biological target: Induced myeloid leukemia cell differentiation protein Mcl-1 (Homo sapiens, UniProt Q07820); type: functional
Chain of Induced myeloid leukemia cell differentiation protein Mcl-1 (Q07820 whole entry): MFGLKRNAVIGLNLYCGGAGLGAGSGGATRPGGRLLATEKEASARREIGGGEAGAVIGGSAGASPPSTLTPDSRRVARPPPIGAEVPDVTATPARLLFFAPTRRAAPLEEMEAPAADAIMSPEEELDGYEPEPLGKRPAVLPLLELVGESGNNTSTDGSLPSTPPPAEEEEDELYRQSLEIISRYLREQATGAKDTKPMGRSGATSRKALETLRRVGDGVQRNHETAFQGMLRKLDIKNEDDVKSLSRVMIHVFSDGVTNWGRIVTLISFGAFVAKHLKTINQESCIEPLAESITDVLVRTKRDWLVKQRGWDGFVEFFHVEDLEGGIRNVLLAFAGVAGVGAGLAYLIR

Nonstructural protein 1 = Nonstructural protein 1 (Influenza A virus, UniProt Q194T2); type: functional, Influenza A virus (A/California/07/2009(H1N1))
Chain of Nonstructural protein 1 (Q194T2 whole entry): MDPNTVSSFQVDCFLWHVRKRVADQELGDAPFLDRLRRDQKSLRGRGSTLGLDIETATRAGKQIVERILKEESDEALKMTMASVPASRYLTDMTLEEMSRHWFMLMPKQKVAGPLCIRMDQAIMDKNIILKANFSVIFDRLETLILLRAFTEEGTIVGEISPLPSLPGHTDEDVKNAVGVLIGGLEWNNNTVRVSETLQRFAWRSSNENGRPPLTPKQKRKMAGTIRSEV

BJ [7] = assay: BJ-TERT fibroblast viability loss – cell-based, RAS-independent, luminescence, dose response (AID 1933); type: functional; conditions: Homo sapiens
BJ [8] = assay: cells; type: functional, cell-based; conditions: Homo sapiens
BJ [9] = assay: BJ-TERT-LT-ST fibroblast viability loss – cell-based, RAS-independent, luminescence, dose response (AID 1935); type: functional; conditions: Homo sapiens;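 further: BJ fibroblasts immortalized with TERT plus LT and ST oncogenes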
[10] = DRD fibroblast viability loss – cell-based, non-viral oncogenic, luminescence, dose response (AID 1934); type: functional; conditions: Homo sapiens
[11] = HEK-293T viability loss after treatment – luminescence, T-cell screen hits, cytotoxicity control for TCR NF-kB inhibitor project, dose response (AID 489026); type: functional, cell-based;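 further: cells exposed to compound about 14 hours before the viability readout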
[12] = viability of PTEN-deleted HCT116 cells – cell-based, HCT116 PTEN knockout, dose response (AID 1047); type: functional;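 further: HCT116 colon tumor cells with PTEN knocked out; cells exposed to compound for 60 hours before readout; potency for loss of cell viability measured by luminescence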
[13] = viability of HCT116 lacking mutant beta-catenin – cell-based, human colon tumor, dose response (AID 1045); type: functional;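 further: HCT116 colon tumor cells with beta catenin knocked out; cells exposed to compound for 60 hours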
[14] = biological target: T4, Replicative DNA helicase DnaB (Mycobacterium tuberculosis, UniProt P9WMR3); assay: DnaB intein splicing inhibitors, dose response, biochemical, cell-free fluorescence (AID 449749); type: functional
T4 sequence (P9WMR3 whole entry): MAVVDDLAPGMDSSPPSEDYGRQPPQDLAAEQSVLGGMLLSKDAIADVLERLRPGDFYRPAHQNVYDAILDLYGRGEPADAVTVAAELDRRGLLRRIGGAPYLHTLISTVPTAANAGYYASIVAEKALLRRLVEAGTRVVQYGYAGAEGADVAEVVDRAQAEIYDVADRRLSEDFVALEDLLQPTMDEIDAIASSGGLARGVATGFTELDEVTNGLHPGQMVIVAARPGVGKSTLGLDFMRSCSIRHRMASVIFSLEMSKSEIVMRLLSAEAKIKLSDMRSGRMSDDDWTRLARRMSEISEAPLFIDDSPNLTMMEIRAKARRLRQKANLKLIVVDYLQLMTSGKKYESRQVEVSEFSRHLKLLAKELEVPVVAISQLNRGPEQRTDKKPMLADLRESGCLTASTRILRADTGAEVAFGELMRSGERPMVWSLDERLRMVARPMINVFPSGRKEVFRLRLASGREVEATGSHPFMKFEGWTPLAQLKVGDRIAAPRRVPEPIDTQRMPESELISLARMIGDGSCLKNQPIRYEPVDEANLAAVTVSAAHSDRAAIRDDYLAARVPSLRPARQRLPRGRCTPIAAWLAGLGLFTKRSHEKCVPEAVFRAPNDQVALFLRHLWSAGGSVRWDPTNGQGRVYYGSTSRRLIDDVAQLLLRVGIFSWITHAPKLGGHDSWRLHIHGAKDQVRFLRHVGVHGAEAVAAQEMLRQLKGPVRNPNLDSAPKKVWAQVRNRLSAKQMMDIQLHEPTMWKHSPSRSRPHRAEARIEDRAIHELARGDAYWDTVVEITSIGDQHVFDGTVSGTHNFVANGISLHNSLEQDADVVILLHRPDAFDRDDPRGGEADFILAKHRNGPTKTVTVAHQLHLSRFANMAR

Protein RecA = biological target: T5, Protein RecA (Mycobacterium tuberculosis, UniProt P9WHJ3); assay: Fluorescence Cell-Free Homogeneous Dose Retest to Identify Inhibitors of RecA-Intein Splicing Activity. [Related pubchem assays (depositor defined):AID2097, AID2223, AID489010, AID492950]; type: functional
T5 sequence (P9WHJ3 whole entry): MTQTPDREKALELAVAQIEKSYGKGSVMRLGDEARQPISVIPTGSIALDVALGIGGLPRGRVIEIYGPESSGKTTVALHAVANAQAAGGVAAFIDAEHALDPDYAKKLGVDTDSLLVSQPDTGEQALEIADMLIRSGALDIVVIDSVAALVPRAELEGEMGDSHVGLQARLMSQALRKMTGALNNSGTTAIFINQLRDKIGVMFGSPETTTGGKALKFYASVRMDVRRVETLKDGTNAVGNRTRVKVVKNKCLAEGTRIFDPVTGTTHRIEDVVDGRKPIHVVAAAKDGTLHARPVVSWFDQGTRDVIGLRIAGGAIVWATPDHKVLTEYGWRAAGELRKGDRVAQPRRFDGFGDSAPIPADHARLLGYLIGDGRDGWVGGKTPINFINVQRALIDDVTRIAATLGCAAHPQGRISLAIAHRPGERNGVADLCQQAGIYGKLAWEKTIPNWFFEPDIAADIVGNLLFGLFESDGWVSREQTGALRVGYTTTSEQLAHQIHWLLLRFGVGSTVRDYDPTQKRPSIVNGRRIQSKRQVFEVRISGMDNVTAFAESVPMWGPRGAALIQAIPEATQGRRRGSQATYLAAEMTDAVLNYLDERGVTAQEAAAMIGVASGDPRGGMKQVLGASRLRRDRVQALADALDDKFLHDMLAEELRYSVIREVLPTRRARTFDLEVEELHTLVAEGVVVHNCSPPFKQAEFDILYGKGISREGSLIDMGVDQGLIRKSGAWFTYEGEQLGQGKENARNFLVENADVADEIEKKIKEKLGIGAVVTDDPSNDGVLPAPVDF

Cytochrome P450 2C19 = Cytochrome P450 2C19 (Homo sapiens, UniProt P33261); assay: Cytochrome panel assay with activity outcomes. Panel member name: p450-cyp2c19 Compounds with AC50 equal or less than 10 uM are considered active; type: functional; conditions: read-out: AC50
Chain of Cytochrome P450 2C19 (P33261 whole entry): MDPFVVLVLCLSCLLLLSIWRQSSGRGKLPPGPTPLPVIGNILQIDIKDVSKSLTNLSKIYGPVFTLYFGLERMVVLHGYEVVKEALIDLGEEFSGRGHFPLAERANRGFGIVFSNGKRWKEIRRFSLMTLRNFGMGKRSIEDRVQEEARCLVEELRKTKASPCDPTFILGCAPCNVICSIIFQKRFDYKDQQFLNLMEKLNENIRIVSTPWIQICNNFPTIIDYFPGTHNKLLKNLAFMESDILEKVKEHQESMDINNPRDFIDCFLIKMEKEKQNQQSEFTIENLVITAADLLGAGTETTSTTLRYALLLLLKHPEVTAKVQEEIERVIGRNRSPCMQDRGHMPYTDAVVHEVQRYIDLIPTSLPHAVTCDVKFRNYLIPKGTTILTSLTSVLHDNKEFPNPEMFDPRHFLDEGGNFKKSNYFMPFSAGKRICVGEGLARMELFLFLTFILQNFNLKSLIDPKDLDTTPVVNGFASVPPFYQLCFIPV

Cytochrome P450 2C9 = Cytochrome P450 2C9 (Homo sapiens, UniProt P11712)
Chain of Cytochrome P450 2C9 (P11712 whole entry): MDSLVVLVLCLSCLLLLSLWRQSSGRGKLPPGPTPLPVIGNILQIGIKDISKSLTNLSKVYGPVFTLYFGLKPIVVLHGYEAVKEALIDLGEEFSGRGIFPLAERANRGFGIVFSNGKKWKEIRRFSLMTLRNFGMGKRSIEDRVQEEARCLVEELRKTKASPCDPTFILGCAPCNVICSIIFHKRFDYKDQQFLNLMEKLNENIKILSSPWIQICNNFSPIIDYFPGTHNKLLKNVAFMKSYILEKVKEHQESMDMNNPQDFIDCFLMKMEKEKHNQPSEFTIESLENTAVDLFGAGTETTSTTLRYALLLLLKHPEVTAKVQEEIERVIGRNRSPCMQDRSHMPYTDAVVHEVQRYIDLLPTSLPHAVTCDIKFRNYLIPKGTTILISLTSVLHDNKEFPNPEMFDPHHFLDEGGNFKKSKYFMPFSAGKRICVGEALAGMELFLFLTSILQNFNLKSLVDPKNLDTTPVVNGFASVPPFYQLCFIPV

Cytochrome P450 3A4 = Cytochrome P450 3A4 (Homo sapiens, UniProt P08684);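 further: CYP3A4 tested as one member of a cytochrome P450 panel screen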
Chain of Cytochrome P450 3A4 (P08684 whole entry, the tested form may be a part): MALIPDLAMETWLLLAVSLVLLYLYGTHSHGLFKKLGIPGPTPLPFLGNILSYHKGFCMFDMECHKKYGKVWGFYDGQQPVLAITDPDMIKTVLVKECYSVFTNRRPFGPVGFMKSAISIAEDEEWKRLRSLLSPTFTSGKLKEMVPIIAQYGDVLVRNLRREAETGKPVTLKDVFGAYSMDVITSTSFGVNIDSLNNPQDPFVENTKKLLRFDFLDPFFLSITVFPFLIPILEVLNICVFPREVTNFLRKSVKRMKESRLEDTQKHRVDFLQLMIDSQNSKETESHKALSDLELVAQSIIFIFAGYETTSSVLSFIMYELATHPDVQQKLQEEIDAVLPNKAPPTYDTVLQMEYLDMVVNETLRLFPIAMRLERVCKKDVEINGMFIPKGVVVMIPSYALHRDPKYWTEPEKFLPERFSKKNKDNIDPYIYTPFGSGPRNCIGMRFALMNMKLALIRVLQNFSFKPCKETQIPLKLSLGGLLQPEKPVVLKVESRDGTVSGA

[15] = blockers of HIV-1 envelope-mediated cell-cell fusion – cherry-pick, dose response (AID 652057); type: functional, cell-based
[16] = blockers of HIV-1 ZM109 envelope-driven cell-cell fusion – HeLa effector, CEM target cells, luciferase, cherry-pick, dose response (AID 652058); type: functional, cell-based;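 further: luciferase signal from HIV-1 Env mediated cell-cell fusion of effector and target cells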
[17] = HIV-1 AD8 envelope cell-cell fusion blockers – cherry-pick, dose response (AID 652062); type: functional, cell-based;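 further: luciferase signal from cell-cell fusion driven by HIV-1 clade B AD8 Env; potency is for inhibitors of fusion seen as a drop in luminescence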
INS1 = assay: INS-1E survival protection against cytokine death – cell-based, luminescence, retest, dose response (AID 449756); type: functional; conditions: Rattus norvegicus;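 further: cell death triggered by IL-1 beta plus TNF-alpha plus IFN-gamma mixture; protective hits raise ATP signal compared with cytokine alone wells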

With `COc1cccc2cc(-c3cn4ccc(C)cc4n3)c(=O)oc12` the IC50 (Estrogen receptor) was 7.85 µM (active).
With `Cc1ccc(C2CC2c2nnc(S)n2-c2ccc(Cl)cc2)cc1` (stereo not drawn) the AC50 [1] was 37.2 µM (active).
For `N=c1c(C(=O)NCc2ccc(F)cc2)cc2c(=O)n3ccccc3nc2n1Cc1cccnc1`, the EC50 [2] was 31.2 µM (inconclusive), the EC50 [3] was 46 µM (active) and the IC50 (Estrogen receptor) was 7.04 µM (active). The EC50 [4] was 1.22 µM (active) and the EC50 [5] was > 60 µM (not active).
In the case of `O=C1NN(c2ccc(Cl)c(Cl)c2)C(=O)/C1=C/c1cccc(OC(=O)c2cccs2)c1`, the IC50 (Estrogen receptor) is reported as > 50 µM (not active) and the IC50 [6] is reported as 3.81 µM (active).
In the case of `COc1cc(OC)c2c(-c3ccccc3)cc(=O)oc2c1C(CCN1CCCCC1)c1ccc(N(C)C)cc1` (stereo not drawn), the IC50 (Nonstructural protein 1) is reported as 11.9 µM (active).
For `CCOC(=O)c1[nH]c2c(c1C)C(=O)CC(c1ccco1)C2` (stereo not drawn), the EC50 (BJ [7]) was 0.334 µM (active), the EC50 (BJ [8]) was 0.594 µM (active) and the IC50 (Estrogen receptor) was 30.3 µM (not active). The EC50 (BJ [9]) was 0.354 µM (inconclusive), the EC50 [10] was 0.328 µM (active) and the IC50 [6] was 6.08 µM (active). The IC50 [11] was > 80 µM (inactive).
For `O=C1NC(=S)N(C2CC2)C(=O)/C1=C/NNC(=O)c1ccccc1Cl`, the IC50 (Nonstructural protein 1) was 20.4 µM (active).
For `Cc1ccc(Cn2ncc(Cl)c(Cl)c2=O)cc1`, the EC50 [12] was 10.5 µM (active), the EC50 [13] was 7.68 µM (active) and the AC50 [14] was 14.3 µM (active). For the same compound, the EC50 (Protein RecA) was 7.65 µM (active) and the AC50 [1] was 8.4 µM (active).
For `O=C(c1ccc(Cl)cc1)N1CCN(c2cc(O)nnc2-c2ccccc2)CC1`, the AC50 (Cytochrome P450 2C19) was 1.41 µM (inconclusive), the AC50 (Cytochrome P450 2C9) was 0.355 µM (inconclusive) and the AC50 (Cytochrome P450 3A4) was “inconclusive”.
For `CCOc1ccccc1/C=c1\sc2nc(-c3ccco3)nn2c1=O`, the IC50 (Estrogen receptor) was > 50 µM (not active).
With `O=C(C[C@H]1C[C@@H]2c3cc(NS(=O)(=O)c4ccc(F)cc4)ccc3O[C@@H]2[C@H](CO)O1)NCCc1ccccc1` the AC50 [15] was 0.666 µM (active), the AC50 [16] was 1.2 µM (active) and the AC50 [17] was 8.44 µM (active).
For `COc1ccc(NC(=O)Nc2ccc3c(c2)CC(=O)N([C@H](C)CO)C[C@H](C)[C@H](CN(C)S(=O)(=O)c2ccccc2)O3)cc1`, the AC50 [15] was < 0.26 µM (active), the AC50 [16] was < 0.26 µM (active) and the AC50 [17] was 0.981 µM (active).
For `C[C@H]1CCCCO[C@H](CN(C)Cc2ccc3c(c2)OCO3)[C@@H](C)CN([C@@H](C)CO)C(=O)c2cc(NC(=O)Nc3ccc(C(F)(F)F)cc3)ccc2O1`, the AC50 [1] was 12.1 µM (active).
In the case of `Cc1ccc(C2C(/C=N/c3c(C)n(C)n(-c4ccccc4)c3=O)=C(c3ccccc3)Oc3ccccc32)cc1` (stereo not drawn), the IC50 (Nonstructural protein 1) is reported as > 100 µM (active), the AC50 (Cytochrome P450 2C19) is reported as 3.16 µM (inconclusive) and the AC50 (INS1) is reported as 6.97 µM (active). The AC50 (Cytochrome P450 2C9) was 2.24 µM (inconclusive).

Source: ChEMBL document CHEMBL1201862, “PubChem BioAssay data set” (2004)
